Experimental data: patent US20180369421A1, “METHOD FOR REDUCING THE PLACEBO EFFECT IN CLINICAL TRIALS” (priority 2017, published 2018)
Values joined by “and” are separate entries in the source; they are usually repeats but may differ in a detail not shown here. Identical values can stand only once.

What was measured:
[1] = cited from earlier work
[2] = drugs.com; cited from earlier work
[3] = system: constipation in subjects already on an opioid pain medication; experiment: Clinical trial of a new product for the treatment of constipation in subjects already on an opioid pain medication, with Acebo arms (Example 2); assay type: in vivo, human; conditions: Acebo arm
Description: A clinical trial is being conducted to measure the efficacy of a new product for the treatment of constipation in subjects already on an opioid pain medication. Nine hundred sixty (960) subjects are enrolled. All are maintained on their present pain medication regimen supplied by the clinical treatment team. The investigational product is supplied by the investigational treatment team as well. The opioid pain medication regimen continues as it was; the investigational product is taken either once or twice per day in a randomized manner.
(§1) All subjects sign an informed consent document prior to beginning the clinical research trial. They are all informed of the following: • 1. 300 of the subjects will be randomized to the new investigational medication, product Y, once daily, and the known benefits and the known potential side effects of Product Y are disclosed. To keep the study blinded, subjects will take a pill twice a day, but one of their doses will be a placebo. • 2. 300 of the subjects will be randomized to the new investigational medication, product Y, twice daily, and the known benefits and the known potential side effects of Product Y are disclosed. • 3. 300 of the subjects will be randomized to placebo taken twice a day. • 4.
5. […] Because you could receive an Acebo, you could get worse.

[4] = system: constipation in subjects not on any adjunctive medication that could cause constipation; experiment: Clinical trial of two doses of a new product for the treatment of constipation in subjects not on adjunctive medication that could cause constipation, with Acebo arms (Example 3); assay type: in vivo, human; conditions: Acebo arm, twice daily
Description: A clinical trial is being conducted to measure of the efficacy of two different doses of a new product for the treatment of constipation in subjects not on any adjunctive medication that could cause constipation. Nine hundred sixty (960) subjects are enrolled. The investigational product is supplied by the investigational treatment team. Subjects who have been on both of the potential Acebos, nortriptyline and St John's wort, will be excluded from this study.
as §1, with “the known and potential side” for “the known potential side”, “• 4. […]” for “• 4.”

Clc1cccc(Cl)c1N=C1NCCN1 [clonidine]
depression among people who took the drug and reported side effects ([1]; 932 of 31,961 people reported to have side effects): ~3% and 2.92%

CNCCC=C1c2ccccc2CCc2ccccc21 [nortriptyline]
constipation as side effect, share of the time [2]: ≥ 10% | worsening [3]: 2% | worsening in abdominal discomfort [4]: 1%

N=C(N)NC(=O)Cc1c(Cl)cccc1Cl [guanfacine]
depression as side effect ([1]; in vivo): does not cause depression | fatigue (tiredness), share of people ([1]; on average): 16% | lethargy, share of people ([1]; on average): 6% | somnolence, share of people ([1]; on average): 34%
